Measurements as given in patent publication US5712300A, “Hydroxamic acid derivatives useful for the treatment of diseases related to connective tissue degradation” (priority 1997, dated 1998).

Tests used:
Stromelysin = Stromelysin (Homo sapiens, UniProt P08254); test: MMP inhibition by particle concentration fluorescence technique (stromelysin); format: biochemical; conditions: pH 7.5; 15 min enzyme preincubation; substrate 1-3 h at room temperature; read-out: MMP Inhibition Constants, Stromelysin Ki
Chain of Stromelysin (P08254 100-477): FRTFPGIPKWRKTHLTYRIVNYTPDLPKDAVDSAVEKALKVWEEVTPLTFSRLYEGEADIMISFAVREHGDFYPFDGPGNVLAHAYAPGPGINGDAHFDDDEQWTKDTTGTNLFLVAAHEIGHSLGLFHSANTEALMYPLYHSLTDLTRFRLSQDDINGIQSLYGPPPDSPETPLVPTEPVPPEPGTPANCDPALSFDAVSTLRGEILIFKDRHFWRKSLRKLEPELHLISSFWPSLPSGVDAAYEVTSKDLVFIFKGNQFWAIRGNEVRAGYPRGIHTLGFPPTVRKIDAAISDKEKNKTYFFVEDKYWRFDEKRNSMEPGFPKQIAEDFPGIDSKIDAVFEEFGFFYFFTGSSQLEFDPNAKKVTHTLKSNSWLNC
Source text: An inhibitor binds to MMP enzymes prevents the degradation of a substrate of stromelysin, gelatinase, or collagenase. The substrate is attached with a fluorescein and a biotin. The intact substrate then binds to an avidin-coated particle via the biotin moiety. Once the particle is washed and dried, a fluorescent signal is generated since the fluorescent group is attached to the particle. Without an inhibitor present, the substrate is degraded by MMP enzymes and the fluorescein group is removed, therefore, no fluorescent signal can be detected. […] Serial two-fold dilutions of each compound are prepared. A concentrated, activated enzyme solution is transferred into each plate of the testing compounds, and the mixture is incubated at room temperature for 15 minutes.

Gelatinase = test: MMP inhibition by particle concentration fluorescence technique (gelatinase); format: biochemical; conditions: pH 7.5; 15 min enzyme preincubation; substrate 1-3 h at room temperature; read-out: MMP Inhibition Constants, Gelatinase Ki
Experimental: Inhibitory activity is evaluated in one or more of the MMP enzymes (stromelysin, gelatinase, and collagenase) in vitro using a particle concentration fluorescence techniques. An inhibitor binds to MMP enzymes prevents the degradation of a substrate of stromelysin, gelatinase, or collagenase. The substrate is attached with a fluorescein and a biotin. The intact substrate then binds to an avidin-coated particle via the biotin moiety. Once the particle is washed and dried, a fluorescent signal is generated since the fluorescent group is attached to the particle. Without an inhibitor present, the substrate is degraded by MMP enzymes and the fluorescein group is removed, therefore, no fluorescent signal can be detected. Testing compounds are dissolved in DMSO to the desired concentration, then the solutions are diluted to 1:5 with MMP buffer (50 mM Tris-HCl, pH 7.5; 150 mM NaCl; 0.02% NAN3). Serial two-fold dilutions of each compound are prepared. A concentrated, activated enzyme solution is transferred into each plate of the testing compounds, and the mixture is incubated at room temperature for 15 minutes. Thawed MMP substrate is then added into all plates, and the plates are incubate in the dark for 1-3 hours at room temperature. At this point, the substrate mixture is reacted with 0.1% avidin-coated polystyrene particles.

| Ki (Stromelysin) | Ki (Gelatinase) | SMILES |
| --- | --- | --- |
| 2770 nM | 2470 nM | CC(C)CC1(C(CSc2cccs2)C(=O)NO)CCN(CCc2ccccc2)C1=O (stereo not drawn) [Example 19, N-Hydroxy-3-(2-methylpropyl)-2-oxo-1-(2-phenylethyl)-α-[2-(2-thienylthio)methyl]-3-pyrrolidineacetamide] |
| 4740 nM | – | CC(C)CC1(CC(=O)NO)NC(=O)N(CCc2ccccc2)C1=O (stereo not drawn) [Example 37, N-Hydroxy-4-(2-methylpropyl)-2,5-dioxo-1-(2-phenylethyl)-4-imidazolidineacetamide] |
| 318 nM | 146 nM | CC(C)C[C@@]1([C@@H](CCN2Cc3cc(F)c(F)cc3C2=O)C(=O)NO)CCN(CCc2ccccc2)C1=O [Example 89, [R-(R*,S*)]-5,6-Difluoro-1,3-dihydro-N-hydroxy-α-[3-(2-methylpropyl)-2-oxo-1-(2-phenylethyl)-3-pyrrolidinyl]-1-oxo-2H-isoindole-2-butanamide] |
| 2220 nM | 4090 nM | CC(C)C[C@@]1([C@@H](CCSc2cccs2)C(=O)NO)CCN(CCc2ccccc2)C1=O (relative stereo) [Example 17, N-Hydroxy-3-(2-methylpropyl)-2-oxo-1-(2-phenylethyl)-α-[2-(2-thienylthio)ethyl]-3-pyrrolidineacetamide] |
| – | 3000 nM | CC(C)C[C@@]1([C@@H](CCNS(=O)(=O)c2ccc(F)cc2)C(=O)NO)CCN(CCc2ccccc2)C1=O [Example 84, [R-(R*,S*)]-α-[2-[[(4-Fluorophenyl)sulfonyl]amino]ethyl]-N-hydroxy-3-(2-methylpropyl)-2-oxo-1-(2-phenylethyl)-3-pyrrolidineacetamide] |
| 1470 nM | 3040 nM | CC(C)C[C@@]1([C@@H](CCCSc2cccs2)C(=O)NO)CCN(CCc2ccccc2)C1=O (relative stereo) [Example 18] |
| – | 1400 nM | CC(C)C[C@@]1([C@@H](CCNS(=O)(=O)c2ccc(F)cc2)C(=O)NO)CCN(CCc2ccccc2)C1=O (relative stereo) [Example 81, α-[2-[[(4-Fluorophenyl)sulfonyl]amino]ethyl]-N-hydroxy-3-(2-methylpropyl)-2-oxo-1-(2-phenylethyl)-3-pyrrolidineacetamide] |
| 491 nM | 82 nM | CC(C)C[C@@]1([C@@H](CCN2C(=O)c3cc4ccccc4cc3C2=O)C(=O)NO)CCN(CCc2ccccc2)C1=O (relative stereo) [Example 6] |
| 1140 nM | 734 nM | CC(C)C[C@@]1([C@@H](CCN2C(=O)c3cc(Cl)c(Cl)cc3C2=O)C(=O)NO)CCN(CCc2ccccc2)C1=O (relative stereo) [Example 8, α-[2-(5,6-Dichloro-1,3-dihydro-1,3-dioxo-2H-isoindol-2-yl)ethyl]-N-hydroxy-3-(2-methylpropyl)-2-oxo-1-(2-phenylethyl)-3-pyrrolidineacetamide] |
| 7000 nM | – | CC(C)C[C@@]1([C@@H](CCN2C(=O)c3c(F)c(F)c(F)c(F)c3C2=O)C(=O)NO)CCN(Cc2ccccc2)C1=O (relative stereo) [Example 24, N-Hydroxy-3-(2-methylpropyl)-2-oxo-1-(phenylmethyl)-α-[2-(4,5,6,7-tetrafluoro-1,3-dihydro-1,3-dioxo-2H-isoindol-2-yl)ethyl]-3-pyrrolidineacetamide] |
| 3120 nM | – | CC(C)CC1(CC(=O)NO)CC(=O)N(CCc2ccccc2)C1=O (stereo not drawn) [Example 35, N-Hydroxy-3-(2-methylpropyl)-2,5-dioxo-1-(2-phenylethyl)-3-pyrrolidineacetamide] |
| 6040 nM | – | CC(C)C[C@@]1([C@@H](CCN2C(=O)c3cccc([N+](=O)[O-])c3C2=O)C(=O)NO)CCN(CCc2ccccc2)C1=O (relative stereo) [Example 10, N-Hydroxy-3-(2-methylpropyl)-α-[2-(4-nitro-1,3-dihydro-1,3-dioxo-2H-isoindol-2-yl)ethyl]-2-oxo-1-(2-phenylethyl)-3-pyrrolidineacetamide] |
